Data set [1] has as its system complementary 11-mer DNA strand labeled with Cy5. The data set can be described thus: Kd-over-time curve of DNA hybridization, dual-emission configuration with IR laser (Example 10). It is filed as binding. As for the experimental part: For the DNA hybridization, a 16-point 1-to-1 dilution series of the unlabeled 11-mer (sequence: 5′ CCT GAA GTC C 3′) was prepared. The complementary 11-mer (sequence: 5′ GGA CTT CAG G 3′) was fluorescently labeled at its 5′ end with Cy5 and added in equal amounts to the dilution series to obtain a final sample concentration of 10 nM. The highest concentration of the unlabeled 11-mer corresponded to 100 μM.
(§1) At the timepoint 0 s, an IR laser was switched on. The response of the fluorescence intensity was simultaneously measured for 6 s (aptamer), respectively 21 s (DNA hybridization).
(§2) From above it is evident that information on the binding interaction (e.g. Kd) can be derived from any “vertical” slice in time along the ratiometric traces, when the method of the present invention is used in combination with fast IR laser heating. A new type of curve, which can be described as Kd-over-time curve can be generated. From this curve not only information on the thermodynamics but also on the binding kinetics of the interaction can be determined. In particular, if the equilibration kinetics of an interaction is slower than the heating with the IR laser, the Kd-over-time curve will show a characteristic lag.
(§3) The Kd-over-time curves provided in FIG. 23 reveal three different interactions with different dissociation constants Kd and binding kinetics.

Data set [2] addresses Cy5-labeled DNA aptamer. The data set can be described thus: Ratiometric measurement with a standard fluorescence microplate-reader, AMP dilution series (Example 1). It is filed as binding. The conditions noted are these: 20 nM Cy5-labeled DNA aptamer, read-out: dissociation constant (Kd), midpoint of dose-response curve. The method, then:
(§4) A 14-point 1-to-1 dilution series of unlabeled AMP was prepared. The DNA aptamer was fluorescently labeled with Cy5 and added in equal amounts to the AMP dilution series to obtain a final sample concentration of 20 nM. The highest concentration of AMP corresponded to 5 mM. For measurements with a standard fluorescence microplate-reader (CLARIOstar, BMG Labtech) 95 […] of the sample were loaded into a micro-well plate.
(§5) For the microplate-reader measurements, the sample was excited at a wavelength of 590 nm and the emission was first detected at a wavelength of 628 nm to 652 nm. Then, the sample was again excited at the 590 nm wavelength and the emission was detected at a wavelength of 665 nm to 725 nm. Three subsequent fluorescence intensity measurements of the dilution series were run.
In order to characterize the interaction with the fluorescence microplate-reader, the ratio between the fluorescence intensities per well was calculated manually by using a commercially available calculation tool (Microsoft Excel). The fluorescence detected at the higher wavelength was divided by the fluorescence detected at the lower wavelength. The sigmoidal dose-response curve provided in FIG. 10A starts at a ratio value of approx. 0.95 and ends at a ratio value of approx. 0.90. The midpoint, which corresponds to the dissociation constant (Kd) of the interaction, lies at approx. 20-30 μM. […]

Data set [3] concerns the target Cy5-labeled DNA aptamer. The data set can be described thus: Ratiometric measurement with the dual-emission configuration, AMP dilution series (Example 1). The format is binding. The conditions noted are these: 20 nM Cy5-labeled DNA aptamer, read-out: Kd of the interaction. The method, then:
as §4, §5
When using lower sample concentrations, i.e. 250 pM, for the ratiometric measurement according to the present invention, the signal-to-noise ratio (S/N) is still very good (19.8) and a Kd of the interaction can be easily determined (FIG. 10C).

Data set [4] concerns the target Cy5-labeled DNA aptamer for adenosine. In words: Kd-over-time curve, dual-emission configuration with IR laser, AMP (Example 10). It is filed as binding. The conditions noted are these: FIG. 23A. As for the experimental part: For the aptamer, a 12-point 1-to-1 dilution series of unlabeled AMP was prepared. The DNA aptamer was fluorescently labeled with Cy5 and added in equal amounts to the AMP dilution series to obtain a final sample concentration of 20 nM. The highest concentration of AMP corresponded to 2 mM.
as §1, §2, §3

The target in data set [5] is T1, lysozyme (Gallus gallus, UniProt P00698). The data set can be described thus: Ratio 350 nm/330 nm of intrinsic tryptophan fluorescence during thermal melting ramp 35° C. to 95° C. It is filed as binding. The conditions noted are these: increasing / very high concentrations of NAG3, unlabeled lysozyme. As for the experimental part: To monitor the temperature of denaturation, each sample is heated from 35° C. to 95° C. […] This shift cannot be used to extract the dissociation constant of this interaction.
T1 sequence (P00698 19-147): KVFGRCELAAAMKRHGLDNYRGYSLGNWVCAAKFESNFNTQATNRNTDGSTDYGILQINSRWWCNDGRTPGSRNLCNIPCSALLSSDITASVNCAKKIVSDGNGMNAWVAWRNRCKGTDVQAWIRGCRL
The alterations in the fluorescence spectrum are independent of the nature of the fluorescent label, i.e. they equally appear in intrinsic as well as extrinsic fluorescent labels. However, the extend of the alterations in the fluorescence spectrum may be increased for certain classes of labels.

The target in data set [6] is T1, lysozyme. In words: Emission spectrum of fluorescently labeled lysozyme alone and in complex with NAG3. The settings on record: corresponding to the spectral shift (Table 3). The format is binding. From the text: (§6) Shifts of 3 nm and of approx. 500 pm correspond to relative changes in the fluorescence ratio of about 37.3% and 5.5%, respectively (Table 3).
Data set [7] has as its target fluorescently labeled streptavidin (Streptomyces avidinii, UniProt P22629). In words: Ratiometric dual-emission dose-response, biotin dilution series (Example 4). The format is binding. The conditions noted are these: 20 nM streptavidin. As for the experimental part: A 12-point 1-to-1 dilution series of unlabeled biotin was prepared. […] The highest concentration of biotin corresponded to 500 nM.
As evident from the dose-response curve shown in FIG. 17, the ratio changed from a value of approx. 2.2 to approx. 1.2 when streptavidin is unbound or in complex with biotin, respectively. Since the target concentration is much higher than the Kd, a characteristic kink at the stoichiometry point at a concentration of 80 nM biotin can be observed.

The next data set has as its target streptavidin (Streptomyces avidinii, UniProt P22629). In words: Emission spectrum of fluorescently labeled streptavidin alone and in complex with biotin. It is filed as binding.
From the text: as §6

Data set [8] is described as follows: Fluorescence ratio of labeled protein over time at room temperature (Example 9). It is filed as physicochemical. The conditions noted are these: 20 nM labeled protein, 0, 3, 8 and 19 minutes. The method, then: The labeled protein was then diluted to a concentration of 20 nM and loaded into a polymer-coated borosilicate glass capillary (Monolith NT.115 Premium Capillaries, MO-K025, NanoTemper Technologies).
The sample was excited at a wavelength of 591 nm. […] Measurements were performed directly after dilution (t=0 min) and again after 3, 8 and 19 minutes inside the capillary.

pKd: −log10 of the molar value. Like-named read-outs stand apart in the source and are kept apart here. {Cy5} = Cy5 dye label

The values below come from patent US20240159675A1, “METHODS AND DEVICES FOR RATIOMETRIC CHARACTERIZATION OF FLUORESCENT PARTICLES” (NANOTEMPER TECHNOLOGIES GMBH, priority 2021, published 2024).

Chain of streptavidin (P22629 25-183, species assumed): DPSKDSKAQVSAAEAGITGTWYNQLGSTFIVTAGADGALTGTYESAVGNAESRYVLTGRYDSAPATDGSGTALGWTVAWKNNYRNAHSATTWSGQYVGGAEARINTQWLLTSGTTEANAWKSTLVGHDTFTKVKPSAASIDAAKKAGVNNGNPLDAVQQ
Chain of fluorescently labeled streptavidin (P22629 25-183, species assumed): as above

As usually defined, the pKd is the Kd on a negative log10 scale, so that one unit is a factor of ten. For “11-mer complementary DNA strands: unlabeled 11-mer (5′ CCT GAA GTC C 3′) titrated against complementary 11-mer (5′ GGA CTT CAG G 3′) labeled at 5′ end with Cy5 (chain 1 CCTGAAGTCC; chain 2 GGACTTCAGG; chain 1: DNA, backbone not given here; chain 2: DNA, 5' {Cy5}, backbone not given here)”, the koff entry in [1] (measured at 22° C., FIG. 23C) was “smaller than 0.01 s^−1”; in data set [1] (measured at 32° C., estimated, FIG. 23B), “approx. 1 s^−1”. For the same molecule, the pKd was approximately 8.30 in [1] (measured at 22° C., FIG. 23C, read-out: Kd); approximately 8.00 in data set [1] (sample temperature 22° C., FIG. 24B, read-out: Kd value at start of IR laser on-time); approximately 6.30 in data set [1] (temperature after IR laser heating approx. 32° C., FIG. 24B, read-out: Kd value after IR laser heating).

On to `Nc1ncnc2c1ncn2[C@@H]1O[C@H](COP(=O)(O)O)[C@@H](O)[C@H]1O` [AMP, adenosine monophosphate], for which the pKd at Cy5-labeled DNA aptamer [2] was 4.52 to 4.70; on Cy5-labeled DNA aptamer [3], 4.41; in data set [4] (Kd-over-time curve), approximately 4.52. In addition, in data set [4] (estimated from Kd-over-time curve), the koff entry was “greater than 10 s^−1”.

For the molecule `CC(=O)N[C@H]1[C@H](O[C@H]2[C@H](O)[C@@H](NC(C)=O)C(O)O[C@@H]2CO)O[C@H](CO)[C@@H](O[C@@H]2O[C@H](CO)[C@@H](O)[C@H](O)[C@H]2NC(C)=O)[C@@H]1O` (stereo partly drawn) [NAG3, Tri-N-acetyl-D-glucosamine], the “effect on thermal denaturation of lysozyme” value at lysozyme [5] is “thermal stabilization”. Further, at lysozyme [6], the “relative change in the fluorescence ratio” value is approximately 5.5%.

As for `O=C(O)CCCC[C@@H]1SC[C@@H]2NC(=O)N[C@@H]21` [biotin], the “stoichiometry point (kink in dose-response curve)” value in [7] (concentration of biotin) worked out at 80 nM. Moreover, the “ratio 670 nm/650 nm of streptavidin in complex with biotin” value in data set [7] (unbound approx. 2.2) was “approx. 1.2”. Moreover, at streptavidin (corresponding to the spectral shift (Table 3)), the “relative change in the fluorescence ratio” value is “about 37.3%”. Further, the “shift of the maximum emission peak wavelength” value at streptavidin (streptavidin 200 nM, biotin 2 μM, excitation 605 nm) was found to be 3 nm.

With “Mitogen-activated protein kinase 14 (p38-α): Mitogen-activated protein kinase 14, fluorescently labeled with Protein Labeling Kit RED-NHS 2nd Generation”, the “stability at room temperature (fluorescence ratio over about 20 minutes)” value in data set [8] was “not stable at room temperature but gradually denatures”.
